Data taken from PMC8308736, “Functional Characterization of the Oxantel-Sensitive Acetylcholine Receptor from Trichuris muris” (Pharmaceuticals, 2021).
Where two headings read alike, the source gives them in different places.

Key:
Tmu-ACR-16-like = biological target: T1, Tmu-ACR-16-like (Trichuris muris, UniProt A0A5S6R3I6); test: two-electrode voltage-clamp in Xenopus oocytes co-injected with Xla-ric-3; format: cell-based
T1 construct: full-length subunit (464 amino acids; GenBank MZ322663), homomeric receptor in Xenopus laevis oocytes
T1 sequence (A0A5S6R3I6 entry or part of it): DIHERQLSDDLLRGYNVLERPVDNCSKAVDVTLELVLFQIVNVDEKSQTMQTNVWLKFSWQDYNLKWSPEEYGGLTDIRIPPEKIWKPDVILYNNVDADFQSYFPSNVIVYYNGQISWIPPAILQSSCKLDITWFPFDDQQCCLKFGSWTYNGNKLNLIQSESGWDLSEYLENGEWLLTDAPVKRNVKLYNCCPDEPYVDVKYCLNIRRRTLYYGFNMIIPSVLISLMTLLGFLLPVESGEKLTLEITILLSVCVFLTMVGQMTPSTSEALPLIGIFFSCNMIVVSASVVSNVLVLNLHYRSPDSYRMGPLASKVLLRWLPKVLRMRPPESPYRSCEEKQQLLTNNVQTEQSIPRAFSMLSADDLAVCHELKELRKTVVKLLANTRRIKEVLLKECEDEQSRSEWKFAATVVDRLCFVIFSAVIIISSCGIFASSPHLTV

Tsu-ACR-16-like = biological target: T2, Tsu-ACR-16-like (Trichuris suis, UniProt A0A890W0I7); test: as above; format: cell-based
T2 construct: ACR-16-like subunit (GenBank MT386096), homomeric receptor in Xenopus laevis oocytes
T2 sequence (A0A890W0I7 22-461): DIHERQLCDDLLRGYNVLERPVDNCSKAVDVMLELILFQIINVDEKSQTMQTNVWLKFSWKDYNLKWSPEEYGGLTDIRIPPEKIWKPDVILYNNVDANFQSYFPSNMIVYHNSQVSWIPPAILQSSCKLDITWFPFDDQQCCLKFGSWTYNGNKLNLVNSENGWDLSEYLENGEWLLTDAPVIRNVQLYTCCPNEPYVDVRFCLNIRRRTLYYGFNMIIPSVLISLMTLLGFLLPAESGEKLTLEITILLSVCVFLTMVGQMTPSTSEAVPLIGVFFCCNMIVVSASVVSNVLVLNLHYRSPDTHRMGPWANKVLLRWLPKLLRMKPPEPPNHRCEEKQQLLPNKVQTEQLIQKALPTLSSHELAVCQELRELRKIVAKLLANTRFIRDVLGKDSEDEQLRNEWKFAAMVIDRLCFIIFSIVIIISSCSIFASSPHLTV

## CC(=O)OCC[N+](C)(C)C [acetylcholine]
Tmu-ACR-16-like; read-out: EC50
  EC50: 31.1 ± 0.3 µM

## Clc1ccc(C2CC3CCC2N3)cn1 (stereo not shown) [epibatidine]
Tmu-ACR-16-like
  EC50: 1.7 ± 0.4 µM
Tsu-ACR-16-like
  EC50: 1.9 ± 0.5 µM

## CN1CCCN=C1/C=C/c1cccc(O)c1 [oxantel]
Tmu-ACR-16-like; read-out: EC50
  EC50: 32.7 ± 0.3 µM
